Laboratory results from patent US12303520B2, “Aqueous nebulization composition” (Nephron Pharmaceuticals Corporation, priority 2017, dated 2025).

What was measured:
[1] = background statement, cited from earlier work
[2] = Solubility of budesonide in solvents; type: physicochemical
From the text: Previous efforts to provide stable, inhalable budesonide solutions, including use of cyclodextrins or use of a modified budesonide, have not been proven pharmaceutically acceptable.

Solubility of budesonide in pure glycerol [2]: not to be soluble
SMILES: CCC[C@@H]1O[C@@H]2C[C@H]3C4CCC5=CC(=O)C=CC5(C)[C@H]4[C@@H](O)CC3(C)[C@]2(C(=O)CO)O1 (mixture of isomers) [Budesonide, (RS)-11-beta, 16-alpha, 17,21-tetrahydroxypregna-I, 4-diene-3,20-dione cyclic 16,17-acetal with butyraldehyde]
Solubility of budesonide in heptanes ([1]; heptanes): practically insoluble | Solubility of budesonide in alcohols ([1]; many alcohols (particularly polyhydric alcohols and organic, water-soluble glycols)): sparingly soluble | Solubility of budesonide in water ([1]; water): practically insoluble
